Assay results from patent publication US20250041189A1, “STEM CELL PROLIFERATION PROMOTER” (SHISEIDO COMPANY, LTD., priority 2021, published 2025).

Key:
epidermal stem cells [1] = settings: disclosed in NPL 1 (Iriyama et al., Scientific Reports 2020); cited from earlier work
epidermal stem cells [2] = assay: Culturing of fresh human skin with agents, fluorescent immunostaining for Ki-67 and MCSP; type: cell-based; settings: fresh human abdominal skin, final concentration 0.01%
Procedure: Fresh skin samples taken from the abdominal regions of participants (aged 20 to 30) with informed consent were purchased from KAC Co., Ltd. The samples were cultured in medium comprising an equal mixture of 10% FBS-DMEM (Thermo Fisher Scientific K.K., 11885084) and Humedia-KG2 (KURABO Industries Ltd., KK-2150S) with addition of 1-(2-hydroxyethyl)-2-imidazolidinone (“S173”, final concentration: 0.01%), which has an effect of inhibiting both MMP-9 and heparanase, […]”, final concentration: 0.01%), or a combination of 1-(2-hydroxyethyl)-2-imidazolidinone and […]”, final concentration: 0.01%). As a control, culturing was carried out in medium containing an equal amount of DMSO solvent lacking these agents. Medium was exchanged daily, and skin tissue slices were collected on the 2nd day (Day2). Following the AMeX method, fresh human skin was dehydrated and fixed using cold acetone and exchanged with acetone, methyl benzoate and xylene in that order, and then embedded in paraffin. Slices with thicknesses of 3 μm were prepared for tissue staining. Paraffin slices cut to 3 μm thicknesses were deparaffinized with xylene and hydrated using EtOH. Antibodies for Ki-67 (SP6) (Thermo Fisher Scientific K.K., RM-9106-S, rabbit […] monoclonal antibody) and antibodies for MCSP (melanoma-associated chondroitin sulphate proteoglycan) (Millipore, MAB2029, 9.2.27, mouse monoclonal antibody) were used for fluorescent immunostaining.

[3] = Day2, compared to control without addition of agent (Day2 control)

## O=C1NCCN1CCO [S173, 1-(2-hydroxyethyl)-2-imidazolidinone]
Epidermal stem cells [1]
  effect on epidermal stem cell counts: maintaining epidermal stem cell counts
Epidermal stem cells [2]; [3]
  number of Ki67-positive cells (cell proliferation marker): increased
  number of MCSP-positive cells (epidermal basal stem cell marker): increased
Epidermal stem cells [2]; Day2, compared to the control
  number of Ki67+MCSP-positive cells: increased
Epidermal stem cells [2]; after culturing for 2 days, compared to Day0 level
  number of stem cells (MCSP-positive) relative to Day0: maintained at the level of Day0
